What was measured:
[1] = test system: C57BL/6J mice injected with MK-801 or AMPH; test: Morris water maze (MWM) spatial learning/memory task after psychotomimetic drug; assay type: in vivo, mouse; conditions: C57BL/6J mice immunized 1 week before MK-801
Description: (iii) Immunization. Each animal was injected with a total of 100 μg of Cop-1 emulsified in an equal volume of complete Freund's adjuvant (CPA) containing 5 mg/ml of Mycobacteria H37 RA (Difco). The emulsion, in a total volume of 0.1 mL, was injected into the flank 1 week before the mouse was first injected with a psychotomimetic drug. Control mice were injected with an equal volume of phosphate-buffered saline (PBS) emulsified in CFA.
(vi) Drug solutions. Fresh solutions of dizocilpine maleate (MK-801; Sigma-Aidrich) were prepared in physiological saline (0.9% NaCl in sterile distilled water) for each batch of mice. Physiological saline was also used as a vehicle for D-amphetamine sulfate (AMPH: Sigma). MK-801. (0.1 mg/kg) or AMPH (2.5 mg/kg) or sahne was injected i.p., in a total volume of 5 ml per kg of body weight. Mice were injected with MK-801, AMPH, or vehicle 15 min before being subjected to behavioral tests.
(vii) Morris water maze (MWM) behavioral test. Spatial learning/memory was assessed by performance on a hippocampal-dependent visuospatial learning task in the MWM. Mice were given four trials per day, for four consecutive days, to find a hidden platform located 1.5 cm below the water surface in a pool 1.4 m in diameter. Within the testing room only distal visuo-spatial cues were available to the mice for location of the submerged platform. The escape latency, i.e., the time required by the mouse to find and climb onto the platform, was recorded for up to 60 s. Each mouse was allowed to remain on the platform for 30 s, and was then moved from the maze to its home cage. […] The inter-trial interval was 30 s. On day 5, the platform was removed from the pool, and each mouse was tested by a probe trial for 60 s. On days 6-7 the platform was placed at the opposite, location, and the mouse was retrained in four sessions. Data were recorded by using an EthoVision automated tracking system (Noldus Information Technology, Wageningen, The Netherlands). […]

Cop-1-reactive T cells = test: ELISA of BDNF secreted by Cop-1-reactive T cells; assay type: cell-based, Lewis rats; conditions: 48 h stimulation with antigen
Description: (iv) T-cell lines. Ten days after Cop-1 immunization, T-cell lines were generated from draining lymph node cells obtained from Lewis rats immunized with Cop-1 emulsified in CFA. The lymph nodes were surgically removed, dissociated, washed, and then activated with the antigen (10 μg/ml) in stimulation medium as previously reported (Kipnis et al., 2000). The T-cells lines were expanded by repeated stimulation and propagation.
(v) Enzyme-linked immunosorbent assay. T cell-reactive Cop-1 cells were grown for 1 week in a propagation medium, then washed with PBS and re-suspended in stimulation medium. The cultured T cells (0.5×10^6 cells/mL) were then incubated, in the presence of irradiated thymocytes (10^7 cells/mL), with concanavalin A (Con A; 1.25 μg/mL), myelin basic protein (MRP; 10 μg/ml), Cop-1 (10 μg/mL), ovalbumin (OVA; 10 μg/mL), or no antigen, in stimulation medium. After 48 h the cells were centrifaged and their supernatants were collected and sampled. Concentrations of brain-derived neurotrophic factor (BDNF) in the samples were determined with a sensitive sandwich ELISA. In brief 96-well flat-bottomed plates were coated with a chicken anti-human BDNF antibody (Promega, Madison, Wis.) in 0.025 M NaHCO3 and 0.025 M Na2CO3 (pH 8.2). Recombinant human BDNF (used as a standard; Research Diagnostics, Flanders, N.J.) was used in serial dilutions in blocking solution containing 3% bovine serum albumin, 0.05% polyoxyethylene-sorbitan monolaurate (Tween-20), and 1% fetal calf serum in PBS (pH 8.2). Bound BDNF was detected by incubating the plates with a mouse anti-human BDNF antibody (Research Diagnostics) and then with peroxidase-conjugated goat anti-mouse IgG (Jackson ImmunoResearch, West Grove, Pa.) in blocking solution. The plates were developed using a 3,3′,5,5′-tetramethylbenzidine liquid substrate system (Sigma-Aldrich). The reaction was stopped by adding 1M H3PO4, and the optical density was determined at 450 nm. Results for each experiment were calculated as the amount of secreted BDNF per 1 mL of sample, after subtraction of background levels of the irradiated thymocytes incubated with the stimulation medium.
Cop-1-reactive T cells were cultured for 48 h with Cop-1, MBP, ovalbumin, or concanavalin A in stimulation medium. T cell supernatants were collected and subjected to sandwich ELISA. […] Values are mean values (pg/ml) +/− SE (from three independent experiments) of the amounts of BDNF secreted by Cop-1-specific T cells in response to stimulation by various antigens.

[2] = test system: mice injected with a psychotomimetic drug; test: Social behavior test; assay type: in vivo, mouse; conditions: vaccinated mice vs controls; data not shown

## Copolymer 1 [Cop-1]
[1]
  MWM extinction phase, time spent in training quadrant after MK-801: behaved similarly to WT mice
Cop-1-reactive T cells
  Secretion of BDNF by Cop-1-reactive T cells compared with unstimulated T cells: significantly increased
Cop-1-reactive T cells; mean of three independent experiments, no antigen 400
  BDNF secreted by Cop-1-reactive T cells (mean): 1220 pg/mL
[2]
  Communicative behavior in social behavior test: better communicative behavior than the controls
